Results on 21 compounds are retold here after patent publication US8518958B2, “Pyrido [2,3-D] pyrimidines and their use as kinase inhibitors” (Forma Therapeutics, Inc., priority 2006, dated 2013).

A word on the IC50: it is the concentration at which inhibition is half-maximal.

One assay concerns the target B-Raf delta1-415 (Homo sapiens, UniProt P15056). Put plainly: B-Raf kinase inhibition (MAPH filter plate, 33P-ATP, MEK1 substrate). As to conditions: read-out: Biochemical IC50 B-Raf. An outline of the steps:
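IC50 values come from dilution series (top 10 μM) measured by scintillation counting of 33P-labelled MEK1 retained on H3PO4-washed filters. Reactions ran 1 h at room temperature in pH 7.0 Mops buffer with MgCl2, MnCl2 and DTT, using 12.5 μCi/ml [γ-33P]ATP and B-Raf delta1-415 titrated to 50% turnover.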

For a further assay, the system named is HT-29 tumor cells. As to the kind of experiment: Anti-proliferative activity, SRB assay. As to conditions: Homo sapiens, HT-29, 72 h, 72 hours exposure, read-out: CELLULAR IC50 HT-29. The format is cell-based, human. An outline of the steps: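 IC50 derived from % inhibition relative to DMSO controls, measured by sulforhodamine B binding (OD570) after TCA fixation. Cells (3,000-15,000 per well) were seeded a day ahead, then treated with graded compound concentrations for 72 hours.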
A general note: Sulforhodamine B stains cellular protein and so reports cell mass.

Structures are written as SMILES.

Chain of B-Raf delta1-415 (P15056 416-766): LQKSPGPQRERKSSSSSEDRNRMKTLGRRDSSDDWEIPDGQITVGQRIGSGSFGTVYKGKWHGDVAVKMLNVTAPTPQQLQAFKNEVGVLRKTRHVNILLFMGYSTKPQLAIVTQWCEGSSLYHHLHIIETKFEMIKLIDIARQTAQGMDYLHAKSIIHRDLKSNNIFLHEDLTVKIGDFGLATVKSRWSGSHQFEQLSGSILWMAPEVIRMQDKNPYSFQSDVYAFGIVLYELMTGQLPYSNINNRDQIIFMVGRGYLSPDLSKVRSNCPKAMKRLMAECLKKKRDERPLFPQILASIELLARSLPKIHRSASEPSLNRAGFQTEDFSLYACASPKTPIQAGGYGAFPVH

For the compound `O=c1c(-c2c(F)cccc2Cl)cc2cnc(Nc3ccccc3)nc2n1OCC1CCOCC1` [Compound 164, 6-(2-Chloro-6-fluorophenyl)-2-phenylamino-8-(tetrahydropyran-4-ylmethyl)oxy-pyrido[2,3-d]pyrimidin-7-one], the IC50 on B-Raf delta1-415 was above 1 µM; with HT-29 tumor cells it was below 1 µM.
The corresponding values for `COn1c(=O)c(-c2c(Cl)cccc2Cl)cc2cnc(Nc3ccon3)nc21` [Compound 85, 6-(2,6-Dichlorophenyl)-2-(isoxazol-3-yl)-amino-8-methoxy-pyrido[2,3-d]pyrimidin-7-one] are below 0.5 µM and below 10 µM.
Consider `COCCOn1c(=O)c(-c2c(Cl)cccc2Cl)cc2cnc(Nc3ccc(N4CCN(C(C)C)CC4)cc3)nc21` [Compound 205, 6-(2,6-Dichlorophenyl)-8-(2-methoxyethyl)oxy-2-(4-(4-(1-methylethyl)piperazino)phenyl)-amino-pyrido[2,3-d]pyrimidin-7-one], for which the IC50 is below 0.1 µM at B-Raf delta1-415 and below 1 µM with HT-29 tumor cells.
`Nc1ncc2cc(-c3c(Cl)cccc3Cl)c(=O)n(OCc3cccnc3)c2n1` [Compound 232, 2-Amino-6-(2,6-dichlorophenyl)-8-(pyrid-3-yl)methoxy-pyrido[2,3-d]pyrimidin-7-one]: the results for the IC50 on B-Raf delta1-415 and in the assay on HT-29 tumor cells were below 1 µM and below 10 µM, respectively.
The corresponding values for `COn1c(=O)c(-c2c(Cl)cccc2Cl)cc2cnc(NCc3ccncc3)nc21` [Compound 147, 6-(2,6-Dichlorophenyl)-8-methoxy-2-pyrid-4-ylmethylamino-pyrido[2,3-d]pyrimidin-7-one] are below 0.5 µM and below 10 µM.
Taken in the same sequence, the figures for `O=c1c(-c2c(Cl)cccc2Cl)cc2cnc(Nc3ccc(N4CCNCC4)cc3)nc2n1OCC1CCOCC1` [Compound 202, 6-(2,6-Dichlorophenyl)-8-(tetrahydropyran-4-ylmethyl)oxy-2-(4-piperazinophenyl)-amino-pyrido[2,3-d]pyrimidin-7-one] were below 0.5 µM and below 1 µM.
Taken in the same sequence, the figures for `COn1c(=O)c(-c2c(Cl)cccc2Cl)cc2cnc(Nc3cc[nH]n3)nc21` [Compound 88, 6-(2,6-Dichlorophenyl)-8-methoxy-2-(pyrazol-3-yl)-amino-pyrido[2,3-d]pyrimidin-7-one] were below 0.5 µM and below 10 µM.
Take `COn1c(=O)c(-c2c(Cl)cccc2Cl)cc2cnc(Nc3ccc(Cn4cccn4)cc3)nc21` [Compound 124, 6-(2,6-dichlorophenyl)-8-methoxy-2-(4-(pyrazol-1-ylmethyl)phenyl)-amino-pyrido[2,3-d]pyrimidin-7-one]: the IC50 on B-Raf delta1-415 is below 0.5 µM; with HT-29 tumor cells it was below 1 µM.
Taken in the same sequence, the figures for `O=c1c(-c2c(Cl)cccc2Cl)cc2cnc(Nc3ccccc3)nc2n1OCc1cccnc1` [Compound 165, 6-(2,6-Dichlorophenyl)-2-phenylamino-8-(pyrid-3-ylmethyl)oxy-pyrido[2,3-d]pyrimidin-7-one] were below 0.5 µM and below 1 µM.
Turning to `COn1c(=O)c(-c2c(F)cccc2Cl)cc2cnc(Nc3ccc(N4CCOCC4)cc3)nc21` [Compound 136], the IC50 at B-Raf delta1-415 is below 0.1 µM; in the assay with HT-29 tumor cells, below 1 µM.
Taken in the same sequence, the figures for `O=c1c(-c2c(F)cccc2Cl)cc2cnc(Nc3ccc(N4CCOCC4)cc3)nc2n1OCC1CCOCC1` [Compound 143] were below 0.1 µM and below 1 µM.
The corresponding values for `COn1c(=O)c(-c2c(Cl)cccc2Cl)cc2cnc(Nc3ccc(Cn4cnnc4)cc3)nc21` [Compound 175, 2-(4-(1,3,4-triazol-1-yl)methylphenyl)-amino-6-(2,6-dichlorophenyl)-8-methoxy-pyrido[2,3-d]pyrimidin-7-one] are below 0.5 µM and below 1 µM.
The corresponding values for `COn1c(=O)c(-c2c(Cl)cccc2Cl)cc2cnc(Nc3ccc(N4CCCC4=O)cc3)nc21` [Compound 110, 6-(2,6-Dichlorophenyl)-8-methoxy-2-(4-(2-oxopyrrolidino)phenyl)-amino-pyrido[2,3-d]pyrimidin-7-one] are below 0.1 µM and below 1 µM.
In the case of `COn1c(=O)c(-c2c(Cl)cccc2Cl)cc2cnc(Nc3ccc(N4CCCC4)cc3)nc21` [Compound 105, 6-(2,6-Dichlorophenyl)-8-methoxy-2-(4-pyrrolidinophenyl)-amino-pyrido[2,3-d]pyrimidin-7-one], the IC50 on B-Raf delta1-415 is below 0.5 µM; in the assay on HT-29 tumor cells, below 10 µM.
The corresponding values for `O=c1ccc2cnc(Nc3ccccc3)nc2n1OC1CCCC1` [Compound 225] are above 1 µM and below 10 µM.
For the compound `CCOn1c(=O)c(-c2c(F)cccc2Cl)cc2cnc(Nc3ccc(N4CCOCC4)cc3)nc21` [Compound 128], the IC50 is below 0.1 µM at B-Raf delta1-415 and below 1 µM in the assay with HT-29 tumor cells.
Taken in the same sequence, the figures for `COn1c(=O)c(-c2c(Cl)cccc2Cl)cc2cnc(Nc3ccc(CN4CCCC4)cc3)nc21` [Compound 101, 6-(2,6-Dichlorophenyl)-8-methoxy-2-(4-pyrrolidinomethylphenyl)-amino-pyrido[2,3-d]pyrimidin-7-one] were below 0.1 µM and below 1 µM.
The corresponding values for `COn1c(=O)c(-c2c(Cl)cccc2Cl)cc2cnc(Nc3cccc(S(=O)(=O)NCCO)c3)nc21` [Compound 126, 6-(2,6-Dichlorophenyl)-2-(3-(2-hydroxyethyl)aminosulfonyl-phenyl)-amino-8-methoxy-pyrido[2,3-d]pyrimidin-7-one] are below 0.1 µM and below 1 µM.
Taken in the same sequence, the figures for `COn1c(=O)c(-c2c(Cl)cccc2Cl)cc2cnc(Nc3cc(C(=O)N4CCN(C)CC4)n(C)c3)nc21` [Compound 163, 6-(2,6-Dichlorophenyl)-8-methoxy-2-(5-(4-methylpiperazino)carbonyl-1-methyl-pyrrol-3-yl)-amino-pyrido[2,3-d]pyrimidin-7-one] were below 0.5 µM and below 1 µM.
As to `O=c1c(-c2c(Cl)cccc2Cl)cc2cnc(Nc3ccccc3)nc2n1OCC1CCOCC1` [Compound 186, 6-(2,6-Dichlorophenyl)-2-phenylamino-8-(tetrahydropyran-4-ylmethyl)oxy-pyrido[2,3-d]pyrimidin-7-one], the IC50 on B-Raf delta1-415 was below 0.5 µM; in the assay on HT-29 tumor cells, below 1 µM.
The corresponding values for `COn1c(=O)c(-c2c(Cl)cccc2Cl)cc2cnc(Nc3ccc(OCCN4CC[C@H](O)C4)cc3)nc21` [Compound 92, 6-(2,6-Dichlorophenyl)-2-(4-(2-(3-(S)-hydroxypyrrolidino)ethyl)oxyphenyl)amino-8-methoxy-pyrido[2,3-d]pyrimidin-7-one] are below 0.1 µM and below 1 µM.
